Source: publication PMC9026348, “Investigation of Direct and Retro Chromone-2-Carboxamides Based Analogs of Pseudomonas aeruginosa Quorum Sensing Signal as New Anti-Biofilm Agents” (Pharmaceuticals, 2022)

Columns and labels:
[1] = tested on: P. aeruginosa PAO1 biofilms; test: Anti-biofilm assay, CFU count of adherent cells; format: cell-based, Pseudomonas aeruginosa PAO1; details: PAO1, 48 h, relative to untreated control, mean ± SD of 3 independent experiments; for inhibition at 50 µM: Pseudomonas aeruginosa
Protocol: The effect of all compounds was evaluated on PAO1 biofilms, grown in 24-well microplates. The antibiofilm assay used in this study is based on a low nutritive culture medium, a rather weak inoculum (10^2 CFU/mL), and a regular renewal of the culture medium (at 2, 4, 6, 20, and 24 h), in order to promote the growth of adhered cells as biofilm, instead of the growth and/or sedimentation of planktonic cells. Since the QS systems are involved in early steps of biofilm formation, compounds were added at t0. After incubation, viable cells were quantified by CFU plate counts.
The rather low concentration of 50 µM used was set up according to detected concentrations of QS molecules in CF patients’ lungs. […] For all compounds, MICs/MBCs were higher than 500 µM. To be considered active, a threshold of 50% inhibition, relative to the untreated control, was applied.
Pseudomonas aeruginosa PAO1 was obtained from the Institute Pasteur Collection (CIP 104116, Paris, France), frozen and kept at -80 °C in a 20% (v/v) glycerol stock solution. Before each experiment, two successive subcultures were prepared on trypticase soy agar and incubated for 24 h under aerobic conditions at 37 °C. Before each experiment, bacterial suspensions of 10^8 CFU/mL were prepared by adjusting OD at 640 nm to 0.150.
The bacterial enumerations were done on trypticase soy agar. The minimum biofilm broth used for biofilm formation (MBB) was prepared in sterile distilled water (SDW) and was composed of MgSO4·7H2O (0.02 g/L), FeSO4·7H2O (0.5 mg/L), Na2HPO4 (1.25 g/L), KH2PO4 (0.5 g/L), (NH4)2SO4 (0.1 g/L), and glucose (0.05 g/L) from Merck-Sigma (France).
The enumeration of adhered bacteria was carried-out according to Campanac et al. with some modifications. P. aeruginosa biofilms were grown in a 24-wells microtiter plate for 48 h. The culture medium was composed of BBM 2X (1.0 mL) and 1.0 mL of a 10^−4 M solution of tested compound dissolved in SDW (final concentration 50 µM). After inoculation with 100 µL of a 10^2 CFU/mL bacterial suspension of P. aeruginosa PAO1 (final inoculum 10 CFU/well), the microtiter plate was incubated à 37 °C. After 2 h, 4 h, 6 h, 20 h and 24 h of incubation, each well was emptied, rinsed twice with SDW, and the culture medium was renewed. After 48 h of culture, the biofilm was rinsed twice with 2.0 mL SDW. The bottom of each well was scraped with a sterile spatula and suspended in 1.0 mL of SDW. The content of each well was diluted by serial dilutions in test tubes. After inclusion of 0.9 mL of each dilution in trypticase soy agar, Petri dishes were incubated for 48 h at 37 °C. The number of colony forming units (CFUs) was counted and the inhibition percentage calculated using the following formula: Inhibition(%)=Adhered cellsControl(CFU/mL)−Adhered cellsSample(CFU/mL) /Adhered cellsControl×100

SMILES | inhibition at 50 µM [1] | melting point | Biofilm Inhibition (%) ([1]; 50 µM)
O=C(Nc1ccccc1)c1cc(=O)c2ccccc2o1 [3a, 4-Oxo-N-phenyl-4H-chromene-2-carboxamide] | 21.4 ± 17% | 229 °C | 
Cc1ccc(NC(=O)c2cc(=O)c3ccccc3o2)cc1 [3b, 4-Oxo-N-(p-tolyl)-4H-chromene-2-carboxamide] | 39.1 ± 5.4% |  | 
CCc1ccc(NC(=O)c2cc(=O)c3ccccc3o2)cc1 [3c, N-(4-Ethylphenyl)-4-oxo-4H-chromene-2-carboxamide] | 43.3 ± 7.2% | 179 °C | 
CCCc1ccc(NC(=O)c2cc(=O)c3ccccc3o2)cc1 [3d, 4-Oxo-N-(4-propylphenyl)-4H-chromene-2-carboxamide] | 55.6 ± 18.3% | 173 °C | 
O=C(Nc1ccc(F)cc1)c1cc(=O)c2ccccc2o1 [3e, N-(4-Fluorophenyl)-4-oxo-4H-chromene-2-carboxamide] | 73.3 ± 11% | 211 °C | 
O=C(Nc1ccc(Cl)cc1)c1cc(=O)c2ccccc2o1 [3f, N-(4-Chlorophenyl)-4-oxo-4H-chromene-2-carboxamide] | 25.9 ± 4.3% | 265 °C | 
O=C(Nc1ccc(Br)cc1)c1cc(=O)c2ccccc2o1 [3g, N-(4-Bromophenyl)-4-oxo-4H-chromene-2-carboxamide] | 47.2 ± 2.8% |  | 
O=C(Nc1ccccc1F)c1cc(=O)c2ccccc2o1 [3h, N-(2-Fluorophenyl)-4-oxo-4H-chromene-2-carboxamide] | 42.4 ± 10.4% | 225 °C | 
O=C(Nc1ccccc1Cl)c1cc(=O)c2ccccc2o1 [3i, N-(2-Chlorophenyl)-4-oxo-4H-chromene-2-carboxamide] | 35.2 ± 14.8% | 181 °C | 
O=C(Nc1ccccc1Br)c1cc(=O)c2ccccc2o1 [3j, N-(2-Bromophenyl)-4-oxo-4H-chromene-2-carboxamide] | 46.1 ± 10.2% | 195 °C | 
O=C(Nc1ccc(F)cc1Cl)c1cc(=O)c2ccccc2o1 [3k, N-(2-Chloro-4-fluorophenyl)-4-oxo-4H-chromene-2-carboxamide] | 44.7 ± 9.4% | 229 °C | 
O=C(Nc1ccc(F)c(Cl)c1)c1cc(=O)c2ccccc2o1 [3l, N-(3-Chloro-4-fluorophenyl)-4-oxo-4H-chromene-2-carboxamide] | < 10% | 291 °C | 
O=C(Nc1ccc([N+](=O)[O-])cc1)c1cc(=O)c2ccccc2o1 [3m, N-(4-Nitrophenyl)-4-oxo-4H-chromene-2-carboxamide] | 58.7 ± 2.5% | 307 °C | 
O=C(Nc1ccc([N+](=O)[O-])cc1[N+](=O)[O-])c1cc(=O)c2ccccc2o1 [3n, N-(2,4-Dinitrophenyl)-4-oxo-4H-chromene-2-carboxamide] | < 10% | 330 °C | 
O=C(Nc1cc([N+](=O)[O-])cc([N+](=O)[O-])c1)c1cc(=O)c2ccccc2o1 [3o, N-(3,5-Dinitrophenyl)-4-oxo-4H-chromene-2-carboxamide] | 43.8 ± 24.2% | 312 °C | 
COc1ccc(NC(=O)c2cc(=O)c3ccccc3o2)cc1 [3p, N-(4-Methoxyphenyl)-4-oxo-4H-chromene-2-carboxamide] | 47.5 ± 5.3% |  | 
COc1ccccc1NC(=O)c1cc(=O)c2ccccc2o1 [3q, N-(2-Methoxyphenyl)-4-oxo-4H-chromene-2-carboxamide] | 41.3 ± 5.7% | 199 °C | 
CSc1ccccc1NC(=O)c1cc(=O)c2ccccc2o1 [3r, N-(2-(Methylthio)phenyl)-4-oxo-4H-chromene-2-carboxamide] | 47.8 ± 5.7% | 163 °C | 
COc1ccc(NC(=O)c2cc(=O)c3ccccc3o2)cc1OC [3s, N-(3,4-Dimethoxyphenyl)-4-oxo-4H-chromene-2-carboxamide] | < 10% | 229 °C | 
COc1cc(NC(=O)c2cc(=O)c3ccccc3o2)cc(OC)c1 [3t, N-(3,5-Dimethoxyphenyl)-4-oxo-4H-chromene-2-carboxamide] | < 10% | 211 °C | 

SMILES | inhibition at 50 µM [1] | melting point | Biofilm Inhibition (%) ([1]; 50 µM)
O=C(Nc1ccc(N2CCOCC2)cc1)c1cc(=O)c2ccccc2o1 [3u, N-(4-Morpholinophenyl)-4-oxo-4H-chromene-2-carboxamide] | 51.2 ± 11.7% | 288 °C | 
O=C(Nc1ncccn1)c1cc(=O)c2ccccc2o1 [3v, 4-Oxo-N-(pyrimidin-2-yl)-4H-chromene-2-carboxamide] | 46 ± 7.3% | 189 °C | 
CCCNC(=O)c1cc(=O)c2ccccc2o1 [3w, 4-Oxo-N-propyl-4H-chromene-2-carboxamide] | < 10% | 166 °C | 
O=C(NC1CCCCC1)c1cc(=O)c2ccccc2o1 [3x, N-Cyclohexyl-4-oxo-4H-chromene-2-carboxamide] | 32 ± 10.3% | 179 °C | 
O=C(NC12CC3CC(CC(C3)C1)C2)c1cc(=O)c2ccccc2o1 [3y, N-((3S,5S,7S)-Adamantan-1-yl)-4-oxo-4H-chromene-2-carboxamide] | 24.4 ± 8.8% | 201 °C | 
CCc1cccc(NC(=O)c2cc(=O)c3ccccc3o2)c1 [3′a, N-(3-Ethylphenyl)-4-oxo-4H-chromene-2-carboxamide] | 70.5 ± 5.6% | 168 °C | 
CCN(CC)Cc1cc(NC(=O)c2cc(=O)c3ccccc3o2)ccc1O [3′b] |  |  | 35.5 ± 5.8%
CCN(CC)Cc1cc(NC(=O)c2cc(=O)c3ccccc3o2)ccc1O [3′c, N-(3-((Diethylamino)methyl)-4-hydroxyphenyl)-4-oxo-4H-chromene-2-carboxamide] | 39.7 ± 4.5% | 186 °C | 
O=C(Nc1ccc(Cn2ccnc2)cc1)c1cc(=O)c2ccccc2o1 [3′d, N-(4-((1H-Imidazol-1-yl)methyl)phenyl)-4-oxo-4H-chromene-2-carboxamide] | < 10% | 261 °C | 
CC(C)(C)OC(=O)N1CCC(CNC(=O)c2cc(=O)c3ccccc3o2)CC1 [3′e, Tert-butyl 4-((4-oxo-4H-chromene-2-carboxamido)methyl)piperidine-1-carboxylate] | 36 ± 28.6% | 129 °C | 
O=C(NCCCn1ccnc1)c1cc(=O)c2ccccc2o1 [3′f, N-(3-(1H-Imidazol-1-yl)propyl)-4-oxo-4H-chromene-2-carboxamide] | < 10% | 171 °C | 
CCN(CC)CCCC(C)NC(=O)c1cc(=O)c2ccccc2o1 (centres unmarked) [3′g, N-(5-(Diethylamino)pentan-2-yl)-4-oxo-4H-chromene-2-carboxamide] | 14.7 ± 2.1% | 110 °C | 
O=C(CN1CCN(C(=O)c2cc(=O)c3ccccc3o2)CC1)N1CCCC1 [3′i, 2-(4-(2-Oxo-2-(pyrrolidin-1-yl)ethyl)piperazine-1-carbonyl)-4H-chromen-4-one] | 10.8 ± 0.4% | 117 °C | 
O=C(Nc1cc(=O)c2ccccc2o1)c1ccccc1 [6a, N-(4-Oxo-4H-chromen-2-yl) benzamide] | 73.6 ± 6.1% | 218 °C | 
Cc1ccc(C(=O)Nc2cc(=O)c3ccccc3o2)cc1 [6b, 4-Methyl-N-(4-oxo-4H-chromen-2-yl) benzamide] | 67 ± 3.6% | 240 °C | 
CCc1ccc(C(=O)Nc2cc(=O)c3ccccc3o2)cc1 [6c, 4-Ethyl-N-(4-oxo-4H-chromen-2-yl) benzamide] | 63.1 ± 3% | 237 °C | 
CCCc1ccc(C(=O)Nc2cc(=O)c3ccccc3o2)cc1 [6d, N-(4-Oxo-4H-chromen-2-yl)-4-propylbenzamide] | 69.9 ± 9.7% | 229 °C | 
O=C(Nc1cc(=O)c2ccccc2o1)c1ccc(F)cc1 [6e, 4-Fluoro-N-(4-oxo-4H-chromen-2-yl) benzamide] | 65.3 ± 7.6% | 251 °C | 
O=C(Nc1cc(=O)c2ccccc2o1)c1ccc(Cl)cc1 [6f, 4-Chloro-N-(4-oxo-4H-chromen-2-yl) benzamide] | 66.6 ± 2.1% | 296 °C | 
